Article PMC8588467, “Rational Design 2-Hydroxypropylphosphonium Salts as Cancer Cell Mitochondria-Targeted Vectors: Synthesis, Structure, and Biological Properties” (Molecules, 2021)
Read-outs that look alike come from different tables or passages of the source.

Columns and labels:
HuTu-80 cells [1] = experiment: Mitochondrial membrane potential, JC-10 flow cytometry; type: cell-based, human; conditions: for % cells with J-aggregate (red, high membrane potential) / % cells with J-monomer (green, decreased membrane potential): JC-10; for effect on mitochondrial membrane potential: more pronounced with increase of concentration up to IC50
From the text: Apoptosis induction by 3a, b, k, j and 4c through the mitochondrial pathway and HuTu-80 cell line was studied by flow cytometry using the fluorescent dye JC-10 from the Mitochondria Membrane Potential Kit. JC-10 accumulated in the mitochondrial matrix and formed aggregates (J-aggregate) with red fluorescence in normal cells with a high mitochondrial membrane potential. The membrane potential decreased in apoptotic cells. JC-10 started to diffuse out from the mitochondria and converts to the monomeric form (J-monomer) and emits green fluorescence. This is recorded with a flow cytometer. […] The process became more pronounced with an increase of 3a, b, 3k, j and 4c concentrations up to IC50 (Figure 5 and Figure 6).
Cells were harvested at 2000 rpm for 5 min and then washed twice with ice-cold PBS, followed by resuspension in JC-10 (10 µg/mL) and incubation at 37 °C for 10 min. After the cells were rinsed three times and suspended in PBS, the JC-10 fluorescence was observed by flow cytometry (Guava easy Cyte, MERCK, NJ, USA).

[2] = test system: MCF-7 (human breast adenocarcinoma); experiment: MTT cytotoxicity, MCF-7; type: cell-based; conditions: for IC50: mean ± SD, triplicate; for SI MCF-7: IC50 normal cells (WI38) / IC50 cancer cells, ns = no selectivity
[3] = test system: M-HeLa (human cervix epitheloid carcinoma); experiment: MTT cytotoxicity, M-HeLa; type: cell-based; conditions: for IC50: MTT, mean ± SD, triplicate; for SI M-HeLa: IC50 normal cells (WI38) / IC50 cancer cells, ns = no selectivity
HuTu-80 cells [4] = experiment: Induction of apoptosis, annexin V/propidium iodide flow cytometry; type: cell-based, human; conditions: IC50/2, 48-h incubation
Protocol: Apoptosis is one of the most significant mechanisms used for screening new anti-cancer agents. The apoptosis-inducing effect was carried out on lead compounds 3a, b, k, j and 4c showing high selectivity against HuTu-80 cells. The studies were carried out by flow cytometry at concentrations IC50/2 and IC50 (Figure 4). […] The percentage of apoptotic cells in early and late phases was slightly changed with increase compound concentration up to IC50.
HuTu 80 cells at 1 × 10^6 cells/well in a final volume of 2 mL were seeded into six-well plates. After 48 h of incubation, various concentrations of compounds 3a,b and 3k were added to wells.
The cells were harvested at 2000 rpm for 5 min and, then, washed twice with ice-cold PBS, followed by resuspension in binding buffer. Next, the samples were incubated with 5 μL of annexin V-Alexa Fluor 647 (Sigma–Aldrich, St. Louis, MO, USA) and 5 μL of propidium iodide for 15 min at room temperature in the dark. Finally, the cells were analyzed by flow cytometry (Guava easy Cyte, MERCK, Rahway, NJ, USA) within 1 h. The experiments were repeated three times.

HuTu-80 cells [5] = experiment: Intracellular ROS production, CellROX Deep Red flow cytometry; type: cell-based, human; conditions: for CellROX Deep Red fluorescence intensity (ROS production): control 600
From the text: Increasing the production of reactive oxygen species (ROS) by compounds characterizes the mitochondrial apoptotic pathway. Mitochondria are a potential source and target of ROS. ROS lead to disruption of mitochondrial functions and, as a consequence, to irreversible cell damage. In this regard, the effect of test compounds in HuTu-80 cells on ROS production, using flow cytometry analysis and CellROX® Deep Red flow cytometry kit was investigated. Data presented in Figure 7 show a significant increase in CellROX® Deep Red fluorescence intensity. This indicates an increase in ROS production in the presence of the tested compounds.
ROS generation was investigated using flow cytometry assay and CellROX® Deep Red flow cytometry kit. For this HuTu 80 cells were harvested at 2000 rpm for 5 min and then washed twice with ice-cold PBS, followed by resuspension in 0.1 mL of medium without FBS, to which was added 0.2 μL of Cell ROX® Deep Red and incubated at 37 °C for 30 min After three times washing the cells and suspending them in PBS, the production of ROS in the cells was immediately monitored using flow cytometer Guava easy Cyte, MERCK, NJ, USA).

[6] = test system: HuTu 80 (human duodenal adenocarcinoma); experiment: MTT cytotoxicity, HuTu 80; type: cell-based; conditions: for IC50: mean ± SD, triplicate; for SI HuTu 80: IC50 normal cells (WI38) / IC50 cancer cells, ns = no selectivity
[7] = test system: WI38 (diploid human embryo lung); experiment: MTT cytotoxicity, normal cells WI38; type: cell-based; conditions: mean ± SD, triplicate, read-out: WI38 IC50 (normal cell line)
[8] = test system: T98G glioblastoma cell line; experiment: MTT cytotoxicity, T98G; type: cell-based, human; conditions: for IC50: MTT, mean ± SD, triplicate; for SI T98G: IC50 normal cells (WI38) / IC50 cancer cells, ns = no selectivity
[9] = test system: A549 (human lung carcinoma); experiment: MTT cytotoxicity, A549; type: cell-based; conditions: for IC50: mean ± SD, triplicate; for SI A549: IC50 normal cells (WI38) / IC50 cancer cells, ns = no selectivity
[10] = test system: PC3 (human prostate adenocarcinoma); experiment: MTT cytotoxicity, PC3; conditions: for IC50: mean ± SD, triplicate; for SI PC3: IC50 normal cells (WI38) / IC50 cancer cells, ns = no selectivity
[11] = Homo sapiens, read-out: IC50 PC3, MTT

Compound | IC50 ([2]; Homo sapiens, MCF7, MTT) [µM] | SI MCF-7 [2] | IC50 ([3]; Homo sapiens, M-HeLa) [µM] | SI M-HeLa [3] | IC50 ([6]; Homo sapiens, HuTu80, MTT) [µM] | SI HuTu 80 [6] | IC50 ([7]; Homo sapiens, WI-38, MTT) [µM] | IC50 ([8]; Homo sapiens, T98G) [µM] | SI T98G [8] | IC50 ([9]; Homo sapiens, A549, MTT) [µM] | SI A549 [9] | IC50 [10, 11] [µM] | SI PC3 [10] | IC50 ([6]; MTT) [µM] | also measured
CCCCCCCCCCCCCCCC(=O)OCC(O)C[P+](c1ccccc1)(c1ccccc1)c1ccccc1 (stereo not shown) [3k, (2-Hydroxy-3-palmitoyloxy-propyl)triphenylphosphonium trifluoromethanesulfonate] | 30.5 ± 2.5 | ns | 40.3 ± 3.5 | ns | 3.5 ± 0.3 | 5 | 16.2 ± 1.3 | 55.8 ± 4.7 | ns | 54.7 ± 4.4 | ns | 25 ± 2 | ns |  | % cells with J-aggregate (red, high membrane potential) (HuTu-80 cells [1]; IC50, 48 h): 26.2%; % cells with J-monomer (green, decreased membrane potential) (HuTu-80 cells [1]; IC50, 48 h): 73.8%; % cells with J-aggregate (red, high membrane potential) (HuTu-80 cells [1]; IC50/2, 48 h): 35%; % cells with J-monomer (green, decreased membrane potential) (HuTu-80 cells [1]; IC50/2, 48 h): 65%; effect on mitochondrial membrane potential (HuTu-80 cells [1]): decrease the mitochondrial membrane potential; apoptosis induction (HuTu-80 cells [4]): actively induce apoptosis; CellROX Deep Red fluorescence intensity (ROS production) (HuTu-80 cells [5]; IC50, 48 h): 3800; CellROX Deep Red fluorescence intensity (ROS production) (HuTu-80 cells [5]; IC50/2, 48 h): 2000; ROS generation (HuTu-80 cells [5]; compared to 3a and 3b and control (untreated cells)): most active to generate ROS
OC(CI)C[P+](c1ccccc1)(c1ccccc1)c1ccccc1 (stereo not shown) [3d, (2-Hydroxy-3-iodopropyl)triphenylphosphonium trifluoromethanesulfonate] | 88.6 ± 7.1 | ns | 50 ± 4.3 | ns | 9.4 ± 0.7 | 4 | 35.2 ± 2.3 | 64 ± 4.8 | ns | 74.2 ± 5.6 | ns | 39.1 ± 3.1 | ns |  | 
OC(CF)C[P+](c1ccccc1)(c1ccccc1)c1ccccc1 (stereo not shown) [3c, (3-Fluoro-2-hydroxypropyl)triphenylphosphonium trifluoromethanesulfonate] | 56.5 ± 4.5 | ns | 90.6 ± 8.6 | ns | 19.1 ± 1.6 | 2.5 | 47.3 ± 3.8 | 52.1 ± 4.1 | ns | > 100 | ns | 53.5 ± 4.2 | ns |  | 
CCOCC(O)C[P+](c1ccccc1)(c1ccccc1)c1ccccc1 (stereo not shown) [3g, (3-Ethoxy-2-hydroxypropyl)triphenylphosphonium trifluoromethanesulfonate] | 66.8 ± 5.3 | ns | 63.7 ± 5.2 | ns |  | 1.6 | 30.1 ± 2.3 | 62.9 ± 4.6 | ns | 42.2 ± 3.2 | ns | 48.9 ± 3.9 | ns | 18.4 ± 1.5 | 
COCC(O)C[P+](c1ccccc1)(c1ccccc1)c1ccccc1 (stereo not shown) [3f, (2-Hydroxy-3-methoxypropyl)triphenylphosphonium trifluoromethanesulfonate] |  | ns |  | ns |  | 1.5 |  |  | ns |  | ns |  | ns | 23.6 ± 1.8 | IC50 ([2]; MTT): 60.7 ± 4.9 µM; IC50 [3]: 56.2 ± 4.7 µM; IC50 ([7]; MTT): 35.6 ± 2.6 µM; IC50 [8]: 60.4 ± 4.4 µM; IC50 ([9]; MTT): 39 ± 3 µM; IC50 ([10]; read-out: IC50 PC3, MTT): 55.2 ± 4.5 µM
OC(COCC(F)(F)C(F)F)C[P+](c1ccccc1)(c1ccccc1)c1ccccc1 (stereo not shown) [3h, (2-Hydroxy-3-(2,2,3,3-tetrafluoropropoxy)propyl)triphenylphosphonium trifluoromethanesulfonate] | 64.4 ± 5 | ns | 100 ± 8.6 | ns | 28.9 ± 2.1 | ns | 43.7 ± 3.5 | 63.4 ± 4.8 | ns | 34.3 ± 2.6 | ns | 48.7 ± 3.7 | ns |  | 
CCOCC(O)C[P+](c1ccccc1)(c1ccccc1)c1ccccc1.[I-] (stereo not shown) [4b, (3-Ethoxy-2-hydroxypropyl)triphenylphosphonium iodide] |  | ns |  | ns |  | 7 |  |  | ns |  | ns |  | ns | 3.4 ± 0.3 | IC50 ([2]; MTT): 60.3 ± 4.7 µM; IC50 [3]: 68.4 ± 5.9 µM; IC50 ([7]; MTT): 22.9 ± 1.9 µM; IC50 [8]: 49.7 ± 4 µM; IC50 ([9]; MTT): 39.1 ± 3.1 µM; IC50 ([10]; read-out: IC50 PC3, MTT): 42.4 ± 3.3 µM
OC(CCl)C[P+](c1ccccc1)(c1ccccc1)c1ccccc1 (stereo not shown) [3a, (3-Chloro-2-hydroxypropyl)triphenylphosphonium trifluoromethanesulfonate] | 56.1 ± 4.5 | ns | 66.7 ± 5.5 | ns | 10.1 ± 0.8 | 4 | 37.5 ± 3.1 | 64.3 ± 5.3 | ns | 64.4 ± 4.9 | ns | 45 ± 3.6 | ns |  | % cells with J-aggregate (red, high membrane potential) (HuTu-80 cells [1]; IC50, 48 h): 39.4%; % cells with J-monomer (green, decreased membrane potential) (HuTu-80 cells [1]; IC50, 48 h): 60.6%; % cells with J-aggregate (red, high membrane potential) (HuTu-80 cells [1]; IC50/2, 48 h): 40.7%; % cells with J-monomer (green, decreased membrane potential) (HuTu-80 cells [1]; IC50/2, 48 h): 59.2%; effect on mitochondrial membrane potential (HuTu-80 cells [1]): decrease the mitochondrial membrane potential; apoptosis induction (HuTu-80 cells [4]): actively induce apoptosis; CellROX Deep Red fluorescence intensity (ROS production) (HuTu-80 cells [5]; IC50, 48 h): 1500; CellROX Deep Red fluorescence intensity (ROS production) (HuTu-80 cells [5]; IC50/2, 48 h): 1000
CCCCCCCCCCCCCCCCCC(=O)OCC(O)C[P+](c1ccccc1)(c1ccccc1)c1ccccc1 (stereo not shown) [3l, (2-Hydroxy-3-stearoyloxy-propyl)triphenylphosphoniumtrifluoromethanesulfonate] | 52.8 ± 4.2 | ns | 59.2 ± 5.1 | ns | 45 ± 3.5 | ns | 50 ± 3.9 | 55.9 ± 5 | ns | 75.1 ± 5.7 | ns | 53.8 ± 4.4 | ns |  | 
COCC(O)C[P+](c1ccccc1)(c1ccccc1)c1ccccc1 (stereo not shown) [4a] | 75.7 ± 5.9 | ns | 57.3 ± 4.7 | ns | 26.7 ± 2.1 | 1.4 | 36.5 ± 2.8 | 55.3 ± 4.4 | ns | 36 ± 2.8 | ns | 50.3 ± 4 | ns |  | 
C=CCOCC(O)C[P+](c1ccccc1)(c1ccccc1)c1ccccc1 (stereo not shown) [3i, (3-(Allyloxy)-2-hydroxypropyl)triphenylphosphonium trifluoromethanesulfonate] |  | ns |  | ns |  | 5 |  |  | ns |  | ns |  | ns | 7.1 ± 0.06 | IC50 ([2]; MTT): 70.5 ± 5.6 µM; IC50 [3]: 60.8 ± 5.2 µM; IC50 ([7]; MTT): 34.2 ± 2.7 µM; IC50 [8]: 50.4 ± 4 µM; IC50 ([9]; MTT): 41 ± 3.3 µM; IC50 ([10]; read-out: IC50 PC3, MTT): 71.8 ± 6.6 µM
